According to patent publication US6369109B1, “Betulinic acid and derivatives thereof useful for the treatment of neuroectodermal tumor” (Deutsches Krebsforschungszentrum Stiftung des Offentlichen …, priority 1998, dated 2002):
“Also recorded” adds a separate entry of the source.

Tests used:
Type in all cases: cell-based, human
[1] = system: CD95-L mRNA in SH-EP neuroblastoma cells; experiment: CD95-L mRNA expression by RT-PCR; settings: 5 and 10 μg/ml betulinic acid; 0.5 μg/ml doxorubicin 24 h; FIG. 3A
Description: Total RNA was prepared using the Qiagen total RNA kit (Qiagen, Hilden, Germany). RNA was converted to cDNA by reverse transcription and amplified for 38 cycles by PCR in a thermocycler (Stratagene, Heidelberg, Germany) using the Gene Amplification RNA-PCR kit (Perkin-Elmer, Branchburg, N.J.) following the manufacturer's instructions. Primers used for amplification of the CD95-L fragment are according to the sequence of human CD95-L (Suda et al., 1995, Cell 75:1169-1178; Herr et al., 1996, Cell Death Diff., 5:299-305). Expression of β-actin (MWG-Biotech, Ebersberg, Germany) was used as an internal standard for RNA integrity and equal gel loading. PCR products were run at 60 V for 2 h on a 1.5% agarose gel stained with ethidium bromide and visualized by UV illumination.
SH-EP neuroblastoma cells were incubated with 5 and 10 μg/ml betulinic acid for the indicated times or with 0.5 μg/ml doxorubicin for 24 h. CD95-L mRNA expression was determined by RT-PCR. Expression of μ-actin was used to control RNA integrity and equal gel loading.

[2] = system: p53 protein in SH-EP neuroblastoma cells; experiment: Western blot of p53 accumulation; settings: 10 μg/ml betulinic acid; 0.5 μg/ml doxorubicin 12 h; FIG. 5D
Description: Cells were lysed for 30 min at 4° C. in PBS with 0.5% Triton X (Serva, Heidelberg, Germany) and 1 mM phenylmethylsulfonyl fluoride (Sigma, Deisenhofen, Germany) followed by high-speed centrifugation. Membrane proteins were eluted in buffer containing 0.1 M glycine. PH 3.0 and 1.5 M Tris, pH 8.8. Protein concentration was assayed using bicinchoninic acid (Pierce Chemical Co., Rockford, Ill.). Forty μg of protein per lane were separated by 12% SDS-PAGE and electroblotted onto nitrocellulose (Amersham, Braunschweig, Germany). Equal protein loading was controlled by Ponceau red staining of membranes. After blocking for 1 h in PBS supplemented with 2% BSA (Sigma) and 0.1% Tween 20 (Sigma), immunodetection of FLICE, CPP32, PARP, Bax, Bcl-x, Bcl-2, and p53 protein was done using mouse anti-FLICE monoclonal antibody C15 (1:5 dilution of hybridoma supernatant), mouse anti-CPP32 monoclonal antibody (1:1000, Transduction Laboratories, Lexington, KY), rabbit anti-PARP polyclonal antibody (1:10000, Enzyme Systems Products), rabbit anti-Bax polyclonal antibody (1:500, Calbiochem, Bad Soden, Germany), rabbit anti-Bcl-x polyclonal antibody (1:1000, Santa Cruz Biotechnology, Santa Cruz, Calif.), mouse anti-p53 monoclonal antibody (1:10000, Transduction Laboratories), and goat anti-mouse 1gG or goat antirabbit IgG (1:5000, Santa Cruz Biotechnology), ECL (Amersham) was used for detection. […]

[3] = system: CD95-resistant SH-EP^CD95R cells; experiment: Specific apoptosis in resistant cells, FACS of propidium iodide-stained nuclei; settings: 10 μg/ml betulinic acid or 0.5 μg/ml doxorubicin, 72 h; FIG. 6A
Description: (§1) Neuroblastoma (SH-EP, IMR-32, Kelly, and LAN-5, kindly provided by Professor M. Schwab, German Cancer Research Center, Heidelberg, Germany), medulloblastoma cells (Daoy, kindly provided by Dr. T. Pietsch, Department of Neuropathology, University of Bonn Medical Center, Bonn, Germany), Ewing's sarcoma cells (A17/95, kindly provided by Dr. U. Anderer, Institute of Pathology, Humboldt University, Berlin, Germany), melanoma (A-378), breast carcinoma (MCF-71), colon carcinoma (HT-29), small cell lung carcinoma (H-126), renal cell carcinoma (KTCTL-26, kindly provided by H. Lörke, German Cancer Research Center, Heidelberg, Germany) and T-cell leukemia (CEM) cells were cultured in RPMI 1640 (Life Technologies, Inc., Eggenstein, Germany) supplemented with 10% heat-inactivated fetal bovin serum (FCS) from Conco. […]
(§2) Quantification of DNA fragmentation was performed by FACS analysis of propidium iodide stained nuclei as described in Nicoletti et al, 1991, J. Immunol. […] Cells were analyzed for DNA content by flow. cytometry (FACScan, Becton Dickinson, Heidelberg, Germany) using CELLQuest software. […] Cells were analyzed by flow cytometry (FAC-Scan. Becton Dickinson) using CELLQuest software.
(§3) SH-EP neuroblastoma cells (▪). […] Specific apoptosis was determined and calculated as described in the legend to FIG. 1A. […]

[4] = system: doxorubicin-resistant SH-EP^DoxoR cells; experiment: as above; settings: 10 μg/ml betulinic acid or 0.5 μg/ml doxorubicin, 72 h; FIG. 6A
Description: as §1, §2, §3

Compound: COc1cccc2c1C(=O)c1c(O)c3c(c(O)c1C2=O)C[C@@](O)(C(=O)CO)C[C@@H]3O[C@H]1C[C@H](N)[C@H](O)[C@H](C)O1 [doxorubicin]
- CD95-L mRNA induction [1]: strongly up-regulated CD95-L mRNA
- accumulation of p53 protein [2]: induces the accumulation of p53 protein; also recorded: strongly increased
- response of anti-CD95-resistant cells (specific apoptosis) [3]: partially resistant to doxorubicin
- response of doxorubicin-resistant cells (specific apoptosis) [4]: partially resistant to doxorubicin
